Experimental data: ChEMBL document CHEMBL4834497, “Spirocyclic Thiohydantoin Antagonists of F877L and Wild-Type Androgen Receptor for Castration-Resistant Prostate Cancer” (ACS Med Chem Lett, 2021)

Experiments:
[1] = Volume of distribution in steady state in CD-1 mouse at 2 mg/kg, iv; type: ADME, organism-based; details: in vivo, read-out: Vdss
[2] = Cmax in CD-1 mouse at 10 mg/kg, po; type: ADME, organism-based; parameters: route oral, dose 10 mg/kg; details: in vivo
[3] = Oral bioavailability in CD-1 mouse at 10 mg/kg; type: ADME, organism-based; details: in vivo
[4] = Metabolic stability in human liver microsomes assessed as half life; type: ADME, Microsome
[5] = AUC (0 to infinity) in CD-1 mouse at 10 mg/kg, po; type: ADME, organism-based; parameters: time infinity, route oral, dose 10 mg/kg; details: in vivo
[6] = Clearance in CD-1 mouse at 2 mg/kg, iv; type: ADME, organism-based; details: in vivo
[7] = Half life in CD-1 mouse at 2 mg/kg, iv; type: ADME, organism-based; details: in vivo
[8] = Metabolic stability in dog liver microsomes assessed as unchanged parent compound remaining at 10 uM incubated for 60 mins in presence of [13C2,15N-glycine]GSH by LC-MS/MS analysis; type: ADME, Canis lupus familiaris, Microsome; details: read-out: Stabilty
[9] = Metabolic stability in dog liver microsomes assessed as unchanged parent compound remaining at 10 uM incubated for 60 mins in presence of [13C2,15N-glycine]GSH and NADPH by LC-MS/MS analysis; type: ADME, Canis lupus familiaris, Microsome; details: read-out: Stabilty
Androgen receptor [10] = biological target: Androgen receptor (Homo sapiens, UniProt P10275, F877L); assay: Antagonist activity at AR F877L mutant (unknown origin) transfected in human LNCAP cells assessed as inhibition of R1881-stimulated receptor transcriptional activation measured after 20 to 24 hrs by Steady-Glo luciferase assay; type: cell-based
Androgen receptor [11] = biological target: T1, Androgen receptor (Homo sapiens, UniProt P10275); type: tissue-based, LNCaP
T1 sequence (P10275 whole entry): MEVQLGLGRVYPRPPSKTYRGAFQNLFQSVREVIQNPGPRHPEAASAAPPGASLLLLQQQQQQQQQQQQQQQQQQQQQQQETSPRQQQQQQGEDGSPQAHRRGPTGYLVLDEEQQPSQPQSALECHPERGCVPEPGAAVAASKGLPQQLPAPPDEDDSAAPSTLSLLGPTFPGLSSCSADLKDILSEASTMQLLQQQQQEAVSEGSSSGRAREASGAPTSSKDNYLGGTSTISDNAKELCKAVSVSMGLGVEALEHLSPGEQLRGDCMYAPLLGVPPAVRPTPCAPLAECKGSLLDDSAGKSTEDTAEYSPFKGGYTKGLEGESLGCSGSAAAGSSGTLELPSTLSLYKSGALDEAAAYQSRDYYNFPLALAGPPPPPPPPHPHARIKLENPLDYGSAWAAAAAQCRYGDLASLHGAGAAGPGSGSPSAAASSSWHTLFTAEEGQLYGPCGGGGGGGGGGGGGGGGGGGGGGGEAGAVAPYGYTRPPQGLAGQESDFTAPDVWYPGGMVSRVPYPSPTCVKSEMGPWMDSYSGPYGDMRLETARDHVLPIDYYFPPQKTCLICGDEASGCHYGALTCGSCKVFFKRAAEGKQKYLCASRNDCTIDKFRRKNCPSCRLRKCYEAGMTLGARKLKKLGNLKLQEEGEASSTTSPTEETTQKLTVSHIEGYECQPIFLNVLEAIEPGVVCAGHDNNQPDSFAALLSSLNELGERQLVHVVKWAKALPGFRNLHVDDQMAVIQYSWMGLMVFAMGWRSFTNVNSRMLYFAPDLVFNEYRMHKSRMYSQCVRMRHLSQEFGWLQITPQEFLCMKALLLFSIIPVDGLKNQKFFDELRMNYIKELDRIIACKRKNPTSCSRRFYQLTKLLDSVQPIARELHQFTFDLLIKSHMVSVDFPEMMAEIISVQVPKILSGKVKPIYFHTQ
Description: Antagonist activity at wild type androgen receptor in castration-resistant human LNCaP cells assessed as inhibition of R1881-stimulated receptor transcriptional activation measured after 20 to 24 hrs by Steady-Glo luciferase assay

Androgen receptor (Homo sapiens, UniProt P10275, F877L), sequence (P10275 whole entry F877L): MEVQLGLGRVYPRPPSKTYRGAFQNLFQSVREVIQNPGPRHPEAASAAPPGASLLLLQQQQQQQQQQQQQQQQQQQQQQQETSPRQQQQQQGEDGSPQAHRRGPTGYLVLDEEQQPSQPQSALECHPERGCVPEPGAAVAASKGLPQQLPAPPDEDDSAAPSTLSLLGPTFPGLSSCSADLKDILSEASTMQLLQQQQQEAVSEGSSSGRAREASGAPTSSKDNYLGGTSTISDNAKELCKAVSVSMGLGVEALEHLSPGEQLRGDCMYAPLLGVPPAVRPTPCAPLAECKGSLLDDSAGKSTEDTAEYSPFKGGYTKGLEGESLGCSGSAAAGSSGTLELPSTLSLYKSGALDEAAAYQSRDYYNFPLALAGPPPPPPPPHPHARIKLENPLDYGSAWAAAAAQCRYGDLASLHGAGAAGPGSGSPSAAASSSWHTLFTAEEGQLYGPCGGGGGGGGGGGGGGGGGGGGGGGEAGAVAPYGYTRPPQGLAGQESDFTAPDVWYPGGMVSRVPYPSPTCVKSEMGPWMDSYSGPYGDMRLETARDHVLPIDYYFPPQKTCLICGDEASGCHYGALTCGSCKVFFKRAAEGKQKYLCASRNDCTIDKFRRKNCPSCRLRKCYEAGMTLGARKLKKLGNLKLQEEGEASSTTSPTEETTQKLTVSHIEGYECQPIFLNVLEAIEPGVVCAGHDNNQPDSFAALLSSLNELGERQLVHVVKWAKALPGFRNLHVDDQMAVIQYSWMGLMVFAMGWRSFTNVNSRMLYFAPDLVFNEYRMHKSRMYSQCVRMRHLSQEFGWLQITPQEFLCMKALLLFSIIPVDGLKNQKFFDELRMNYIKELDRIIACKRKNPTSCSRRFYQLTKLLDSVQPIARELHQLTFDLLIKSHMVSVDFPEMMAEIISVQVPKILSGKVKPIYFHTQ

| Vd [1] | Cmax [2] | bioavailability [3] | half-life [4] | AUC(0-inf) [5] | clearance [6] | half-life [7] | remaining at 1 h, 10 µM [8] | remaining at 1 h, 10 µM [9] | Structure (SMILES) | IC50 (Androgen receptor [10]) | IC50 (Androgen receptor [11]) |
| --- | --- | --- | --- | --- | --- | --- | --- | --- | --- | --- | --- |
| 16.3 L/kg | 0.92 µM | 97% | > 3 h | 15200 ng·h/mL | 11.5 mL/min/kg | 16.7 h | 100% | 98.4% | CN1C(=S)N(c2cnc(C#N)c(C(F)(F)F)c2)C(=O)C12Cc1ccc(OC3CCNCC3)cc1C2 (stereo not given) | – | – |
| 4.8 L/kg | 3.69 µM | 61% | > 3 h | 27000 ng·h/mL | 3.4 mL/min/kg | 19.5 h | – | – | CNC(=O)c1cc2c(cc1F)CC1(C2)C(=O)N(c2cnc(C#N)c(C(F)(F)F)c2)C(=S)N1C(C)C (stereo not given) | – | – |
| – | – | – | – | – | – | – | – | – | CNC(=O)c1ccc2c(c1)CC1(C2)C(=O)N(c2ccc(C#N)c(C(F)(F)F)c2)C(=O)N1C (stereo not given) | 1.66 µM | > 30 µM |
| – | – | – | – | – | – | – | 100% | 52.3% | CN1C(=S)N(c2cnc(C#N)c(C(F)(F)F)c2)C(=O)C12Cc1ccc(O)cc1C2 (stereo not given) | – | – |
| – | – | – | – | – | – | – | – | – | CNC(=O)c1ccc2c(c1)CC1(C2)NC(=S)N(c2cnc(C#N)c(C(F)(F)F)c2)C1=O (stereo not given) | > 15 µM | > 15 µM |
| 2.3 L/kg | 3.7 µM | 92% | 1.97 h | 39100 ng·h/mL | 4 mL/min/kg | 6.9 h | – | – | CNC(=O)c1cc2c(cc1F)C[C@@]1(C2)C(=O)N(c2cnc(C#N)c(C(F)(F)F)c2)C(=S)N1C(C)C | – | – |
| – | – | – | – | – | – | – | – | – | CNC(=O)c1ccc2c(c1)CC1(C2)NC(=S)N(c2ccc(C#N)c(C(F)(F)F)c2)C1=O (stereo not given) | 5.01 µM | 11.2 µM |
| 1.9 L/kg | 6.1 µM | 80% | 2.25 h | 99400 ng·h/mL | 1.3 mL/min/kg | 15.8 h | – | – | CNC(=O)c1cc2c(cc1F)C[C@]1(C2)C(=O)N(c2cnc(C#N)c(C(F)(F)F)c2)C(=S)N1C(C)C | – | – |

| Structure (SMILES) | Vd [1] | Cmax [2] | bioavailability [3] | half-life [4] | AUC(0-inf) [5] | clearance [6] | half-life [7] | remaining at 1 h, 10 µM [8] | remaining at 1 h, 10 µM [9] | IC50 (Androgen receptor [10]) | IC50 (Androgen receptor [11]) |
| --- | --- | --- | --- | --- | --- | --- | --- | --- | --- | --- | --- |
| CNC(=O)c1cc2c(cc1F)CC1(C2)C(=O)N(c2ccc(C#N)c(C(F)(F)F)c2)C(=S)N1C(C)C (stereo not given) | 1.7 L/kg | 8.85 µM | 102% | > 3 h | 107000 ng·h/mL | 1.6 mL/min/kg | 14.8 h | – | – | – | – |
| CNC(=O)c1cc2c(cc1F)C[C@@]1(C2)C(=O)N(c2ccc(C#N)c(C(F)(F)F)c2)C(=S)N1C(C)C | 1.8 L/kg | 5.81 µM | 91% | > 3 h | 50400 ng·h/mL | 3 mL/min/kg | 5.2 h | – | – | – | – |
| N#Cc1ncc(N2C(=O)C3(CCC3)N(c3ccc(O)cc3)C2=S)cc1C(F)(F)F | – | – | – | – | – | – | – | – | 78.7% | – | – |
| CNC(=O)c1cc2c(cc1F)C[C@]1(C2)C(=O)N(c2ccc(C#N)c(C(F)(F)F)c2)C(=S)N1C(C)C | 1.7 L/kg | 5.86 µM | 63% | > 3 h | 104000 ng·h/mL | 0.9 mL/min/kg | 10.3 h | – | – | – | – |
